Results taken from publication PMC12118337, “Development of a Peptide Inhibitor Targeting the C‐SH2 Domain of the SHP2 Phosphatase” (Chembiochem, 2025).
Blank lines part the entries; values can stand above or below the compound they belong to. Non-standard residues stand in square brackets, D forms with d. Residues, ends and D or L forms follow the SMILES beside them. *: point of attachment. AEEA = NCCOCCOCC(=O)O; X1 = O=C(O)C(C(=O)O)*

How the values were obtained:
[1] = target: T1, full‐length SHP2 (Homo sapiens, UniProt Q06124); test: DiFMUP phosphatase assay, peptide inhibition in the presence of ITIM-[dPEG4]2-ITSM activator; assay type: biochemical; settings: 0.5 nM full-length SHP2 activated with 26 nM bisphosphorylated ITIM-[dPEG4]2-ITSM, 200 µM DiFMUP, pH 7.6, 20 min pre-incubation at room temperature; two or three independent experiments in technical triplicates; read-out: IC50 ± SEM (DiFMUP activity assay)
T1 construct: 1–525) proteins were prepared; His-SUMO3 (pETM11-SUMO3 vector) (N, cleaved yes); made in house; host or cells: E. coli BL21(DE3)
T1 sequence (Q06124 1-525): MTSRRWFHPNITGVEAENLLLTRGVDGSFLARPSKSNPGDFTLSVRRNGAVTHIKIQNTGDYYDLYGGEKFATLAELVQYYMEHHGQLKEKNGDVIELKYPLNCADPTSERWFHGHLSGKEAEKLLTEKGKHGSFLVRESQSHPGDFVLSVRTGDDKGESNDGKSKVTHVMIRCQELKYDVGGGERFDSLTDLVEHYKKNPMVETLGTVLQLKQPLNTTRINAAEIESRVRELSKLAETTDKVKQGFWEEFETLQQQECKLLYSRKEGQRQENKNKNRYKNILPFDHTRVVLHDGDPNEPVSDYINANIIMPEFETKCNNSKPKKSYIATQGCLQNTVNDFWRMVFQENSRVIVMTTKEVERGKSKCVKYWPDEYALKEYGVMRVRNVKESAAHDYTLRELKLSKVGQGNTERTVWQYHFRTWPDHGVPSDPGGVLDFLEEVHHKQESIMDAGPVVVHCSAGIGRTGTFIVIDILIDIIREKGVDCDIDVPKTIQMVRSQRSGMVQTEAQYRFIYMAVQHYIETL
Experimental: 6. DiFMUP phosphatase assays
SHP2 dephosphorylation of the fluorogenic substrate 6,8-difluoro-4-methylumbiliferyl phosphate (DiFMUP) was measured to evaluate the effect of acetylated peptides on SHP2 activity. Final concentrations of 0.5 nM full-length SHP2, 200 µM DiFMUP (Invitrogen) and 26 nM bisphosphorylated tandem ITIM-[dPEG4]2-ITSM (CASLO ApS) were used, unless stated otherwise, per well in 96-well plates (OptiPlate-96 F Black; PerkinElmer). For peptide activation assays, each well contained 60 µL of reaction buffer (50 mM HEPES pH 7.6, 150 mM NaCl, 1 mM EDTA, 0.05% Tween 20, freshly added 5 mM DTT), 10 µL of SHP2 and 20 µL of the test peptide (0.096 nM – 51.2 µM final concentration). For peptide inhibition assays in the presence of a SHP2 activator, each well contained 40 µL of reaction buffer (50 mM HEPES pH 7.6, 150 mM NaCl, 1 mM EDTA, 0.05% Tween 20, freshly added 5 mM DTT), 10 µL of SHP2 and 40 µL of previously mixed bisphosphorylated tandem ITIM-[dPEG4]2-ITSM activator and test peptide (0.096 nM – 51.2 µM or 0.376 nM – 200 µM final concentration). To obtain the maximal activity, 10 µL of SHP2 and 20 µL of bisphosphorylated tandem ITIM-[dPEG4]2-ITSM activator was added to 60 µL of buffer. Samples were incubated for 20 minutes at room temperature and then 10 µL of DiFMUP was added to each sample, to give a final volume of 100 µL per well. For background subtraction, 10 µL of DiFMUP was added to 80 µL of buffer. The fluorescence was immediately measured on a Synergy H1 Microplate Reader (BioTek) with the excitation and emission monitored at 358 nm and 452 nm, respectively, over 30 minutes. Data were analysed in Excel 2016 by subtracting background values from emission values and calculating the slope of the emission profiles. Data were then further analysed in GraphPad Prism 6 by either: 1) plotting the slope against the peptide concentration and fitting the data to a variable slope model of non-linear regression; or 2) normalising the data to the maximal activity (SHP2 in the presence of ITIM-[dPEG4]2-ITSM; set to 100% activity) to obtain the % activity, plotting the % activity against the peptide concentration and fitting the data to a variable slope model of non-linear regression to obtain the IC50 values. Data are from two or three independent experiments, each performed in […]

[2] = system: WT Jurkat T cells; settings: CCK-8, 50–200 μM, 24 h; four independent experiments in technical triplicates
Experimental: (§1) three or four independent experiments with 4 – 7 images taken per well in each […]
(§2) 7. Peptide cytotoxicity assays
(§3) The cytotoxicity of acetylated peptide 29 in WT Jurkat T cells and WT HeLa cells was determined using Cell Counting Kit-8 (CCK-8). Jurkat cells were seeded at 5 x 10^4 cells/well and HeLa cells were seeded at 5 x 10^3 cells/well in 96-well flat-bottom cell culture plates (Greiner Bio-One). HeLa cells were allowed to adhere overnight at 37°C […]
(§4) 200 µM for Jurkat cells and 100 µM, 200 µM or 300 µM for HeLa cells in a total volume of 100 µL, each concentration in triplicate wells. In addition, three wells containing media alone as the background, three wells containing vehicle (H2O) treated cells as the negative control and three wells containing cells treated with 5% DMSO (Jurkat cells) or 20% DMSO (HeLa cells) to induce cell death as the positive control, were included in the plate. Cells were incubated with the peptide or controls for 24 hours (Jurkat cells) or 16 hours (HeLa cells) at 37°C and 5% CO2, then 10 µL of CCK-8 solution (Sigma-Aldrich) was added to each well and incubated for 1.5 hours at 37°C

[3] = system: WT HeLa cells; settings: CCK-8, 100–300 µM, 16 h; three or four independent experiments in technical triplicates
Experimental: as §1, §2, §3, §4

[4] = target: T2, SHP2 N‐SH2 domain (Homo sapiens, UniProt Q06124); settings: ITC, previously reported; read-out: previously reported ITC K D, N‐SH2; cited from earlier work
T2 construct: SHP2 N-SH2 domain (1–105), C-SH2 domain (106–220), PTP domain (224–541) and; His6 (pETM22 vector) (N, cleaved yes); made in house; host or cells: E. coli BL21(DE3)
T2 sequence (Q06124 1-105): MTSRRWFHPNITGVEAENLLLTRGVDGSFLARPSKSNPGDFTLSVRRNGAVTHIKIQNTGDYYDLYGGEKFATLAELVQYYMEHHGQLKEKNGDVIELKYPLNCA

[5] = target: T3, SHP2 C‐SH2 domain (Homo sapiens, UniProt Q06124); settings: ITC, previously reported; read-out: previously reported ITC K D, C‐SH2; cited from earlier work
T3 construct: SHP2 N-SH2 domain (1–105), C-SH2 domain (106–220), PTP domain (224–541) and; His6 (pETM22 vector) (N, cleaved yes); made in house; host or cells: E. coli BL21(DE3)
T3 sequence (Q06124 106-220): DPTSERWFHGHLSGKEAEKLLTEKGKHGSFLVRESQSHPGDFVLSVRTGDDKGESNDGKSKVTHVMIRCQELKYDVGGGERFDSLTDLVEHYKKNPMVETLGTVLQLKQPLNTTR

IC50 [1]: 7.82 ± 1.95 µM
Compound: CC[C@H](C)[C@H](NC(=O)[C@@H](NC(=O)[C@H](C)NC(=O)[C@H](Cc1ccc(OC(C(=O)O)C(=O)O)cc1)NC(=O)[C@H](CCC(=O)O)NC(=O)[C@@H](NC(=O)[C@H](CCC(N)=O)NC(C)=O)[C@@H](C)O)[C@@H](C)O)C(=O)N[C@@H](CCCCN)C(=O)N[C@@H](Cc1c[nH]cn1)C(=O)N1CCC[C@H]1C(N)=O [peptide 24] (Ac-QTEY(X1)ATIKHP-NH2)

Compound: CC[C@H](C)[C@H](NC(=O)[C@@H](NC(=O)[C@H](C)NC(=O)[C@H](Cc1ccc(OC(C(=O)O)C(=O)O)cc1)NC(=O)[C@H](CCC(=O)O)NC(=O)[C@@H](NC(=O)[C@H](CCC(N)=O)NC(=O)COCCOCCNC(=O)[C@@H](CCCNC(=N)N)NC(=O)[C@@H](CCCNC(=N)N)NC(=O)[C@@H](CCCNC(=N)N)NC(=O)[C@@H](CCCNC(=N)N)NC(=O)[C@@H](CCCNC(=N)N)NC(=O)[C@@H](CCCNC(=N)N)NC(=O)[C@@H](CCCNC(=N)N)NC(=O)[C@@H](CCCNC(=N)N)NC(C)=O)[C@@H](C)O)[C@@H](C)O)C(=O)N[C@@H](CCCCN)C(=O)N[C@@H](Cc1c[nH]cn1)C(=O)N1CCC[C@H]1C(N)=O [peptide 29] (Ac-[dR][dR][dR][dR][dR][dR][dR][dR][AEEA]QTEY(X1)ATIKHP-NH2)
cytotoxicity (viability) in Jurkat cells [2]: only started showing a trend toward some toxicity at the highest concentration of 200 μM
cytotoxicity (viability) in HeLa cells [3]: no toxicity

Compound: PD‐1 ITSM: PD‐1 immunoreceptor tyrosine‐based switch motif phosphopeptide of the authors' earlier work (ref 11) (EQTEYATIVFP; phospho-Tyr5 (pTyr))
Kd [4]: 0.167 µM
Kd [5]: 0.013 µM
